Experimental findings from patent US7265130B2, “NPY Y5 antagonist” (Shionogi & Co., Ltd., priority 1999, dated 2007) are described below.

In test [1] the target is T1, human NPY Y5 receptor (Homo sapiens, UniProt Q15761).
T1 construct: expressed in transfected cells
T1 sequence (Q15761 1-445): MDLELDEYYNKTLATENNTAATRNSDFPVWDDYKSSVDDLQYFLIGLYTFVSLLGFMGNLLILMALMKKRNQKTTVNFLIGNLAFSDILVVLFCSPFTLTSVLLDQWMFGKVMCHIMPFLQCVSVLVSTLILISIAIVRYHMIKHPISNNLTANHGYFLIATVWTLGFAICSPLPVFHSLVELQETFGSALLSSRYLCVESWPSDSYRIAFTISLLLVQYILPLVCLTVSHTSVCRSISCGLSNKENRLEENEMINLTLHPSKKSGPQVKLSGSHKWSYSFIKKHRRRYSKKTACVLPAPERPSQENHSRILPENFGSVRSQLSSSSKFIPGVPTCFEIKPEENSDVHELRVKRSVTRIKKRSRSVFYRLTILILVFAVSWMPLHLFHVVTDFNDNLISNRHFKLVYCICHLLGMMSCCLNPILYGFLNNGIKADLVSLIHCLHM
Put plainly: Affinity for NPY Y5 receptor ([125I] peptide YY binding, CHO cell membranes). The conditions noted are these: inhibition of specific [125I] peptide YY binding, membranes of CHO cells expressing NPY Y5 receptor. Summed up:
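IC50 is inhibition of specific [125I] peptide YY binding (60 pM final; non-specific defined by 200 nM peptide YY), read by gamma counting after filtration. Binding used stably transfected CHO-cell membranes with compound, 2 hours at 25° C, pH 7.4 HEPES-Hanks/0.1% BSA.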

In test [2] the target is T1, human NPY Y5 receptor. The test can be described thus: cAMP production inhibitory activity in CHO cells. Format: cell-based. The conditions noted are these: against 50 nM NPY inhibition of forskolin stimulated cAMP, CHO cells expressing human NPY Y5 receptor. The gist of the method:
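Supernatant cAMP quantified by EIA after HCl stop, following 30 min stimulation with 10 μM forskolin and 50 nM NPY. Compound was added 5 min before stimulation to human NPY Y5-expressing CHO cells pretreated 20 min at 37 °C with 2.5 mM isobutylmethylxanthine.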
A general note: Cyclic AMP is a second messenger, typically raised through Gs and lowered through Gi signalling.

In the case of `CC(C)(C)S(=O)(=O)NC1CCC(C(=O)Nc2ccc(F)c(C(F)(F)F)c2)CC1` (centres unmarked) [Ia-160], the IC50 on human NPY Y5 receptor [1] turned out to be 0.76 nM; against human NPY Y5 receptor [2] it was 140 nM.
Take `Cc1ccc(NC(=O)C2CCC(NS(=O)(=O)C(C)(C)C)CC2)cc1F` (centres unmarked) [Ia-161]: the IC50 was determined as 1.9 nM on human NPY Y5 receptor [1] and 18 nM against human NPY Y5 receptor [2].
The matching figures for `CC(C)S(=O)(=O)Nc1ccc(C(=O)Nc2ccc3c(c2)CCC3)cc1` [Ia-163]: 7 nM and 400 nM.
The matching figures for `CC(C)(C)S(=O)(=O)NC1CCC(C(=O)Nc2ccc(OC3CCCC3)cc2)CC1` (centres unmarked) [Ia-164]: 0.38 nM and 4.7 nM.
Turning to `CC(C)(C)S(=O)(=O)NC1CCC(C(=O)Nc2cccc(S(=O)(=O)NC3CCCCC3)c2)CC1` (centres unmarked) [Ia-168], the IC50 is 0.95 nM at human NPY Y5 receptor [1] and 13 nM against human NPY Y5 receptor [2].
The like results for `CC(C)(C)S(=O)(=O)NC1CCC(C(=O)Nc2ccc(S(=O)(=O)NC3CCCCC3)cc2)CC1` (centres unmarked) [Ia-169] were, in that order, 1.9 nM and 88 nM.
The like results for `CC(C)(C)S(=O)(=O)NC1CCC(C(=O)Nc2ccc(N3CCCCC3=O)cc2)CC1` (centres unmarked) [Ia-173] were, in that order, 6.9 nM and 140 nM.
The like results for `CC(C)(C)S(=O)(=O)NC1CCC(C(=O)Nc2ccc(OCC3CC3)cc2)CC1` (centres unmarked) [Ia-174] were, in that order, 0.35 nM and 5.4 nM.
Turning to `CC(C)(C)S(=O)(=O)NC1CCC(C(=O)Nc2ccc(OC3CCCCC3)cc2)CC1` (centres unmarked) [Ia-175], the IC50 was 0.49 nM on human NPY Y5 receptor [1] and 9.2 nM at human NPY Y5 receptor [2].
The like results for `CC(C)(C)S(=O)(=O)NC1CCC(C(=O)Nc2cccc(OC3CCCCC3)c2)CC1` (centres unmarked) [Ia-176] were, in that order, 0.63 nM and 5.1 nM.
The like results for `CC(C)(C)S(=O)(=O)NC1CCC(C(=O)Nc2ccc(-c3ccco3)cc2)CC1` (centres unmarked) [Ia-177] were, in that order, 0.49 nM and 7.5 nM.
The matching figures for `CC(C)(C)S(=O)(=O)NC1CCC(C(=O)Nc2ccc(-c3ccno3)cc2)CC1` (centres unmarked) [Ia-179]: 0.89 nM and 19 nM.
Take `CC(C)NS(=O)(=O)c1ccc(NC(=O)C2CCC(NS(=O)(=O)C(C)(C)C)CC2)cc1` (centres unmarked) [Ia-180]: the figures for the IC50 at human NPY Y5 receptor [1] and against human NPY Y5 receptor [2] were 1.9 nM and 11 nM, respectively.
For the compound `CC(C)NS(=O)(=O)c1cccc(NC(=O)C2CCC(NS(=O)(=O)C(C)(C)C)CC2)c1` (centres unmarked) [Ia-181], the IC50 worked out at 7.7 nM at human NPY Y5 receptor [1] and 25 nM on human NPY Y5 receptor [2].
The like results for `CC(C)(C)S(=O)(=O)NC1CCC(C(=O)Nc2cccc(OCC3CC3)c2)CC1` (centres unmarked) [Ia-182] were, in that order, 0.24 nM and 2.1 nM.
The like results for `CC(C)(C)S(=O)(=O)NC1CCC(C(=O)Nc2ccc(N3CCCC3=O)cc2)CC1` (centres unmarked) [Ia-183] were, in that order, 1.9 nM and 7.8 nM.
The matching figures for `CC(C)(C)S(=O)(=O)NC1CCC(C(=O)Nc2ccc(S(=O)(=O)N3CCCCC3)cc2)CC1` (centres unmarked) [Ia-185]: 0.94 nM and 4.4 nM.
Take `CC(C)(C)S(=O)(=O)NC1CCC(C(=O)Nc2cccc(S(=O)(=O)N3CCCCC3)c2)CC1` (centres unmarked) [Ia-186]: the IC50 was 0.93 nM on human NPY Y5 receptor [1] and 12 nM against human NPY Y5 receptor [2].
Turning to `CC(C)(C)NC(=O)c1ccc(NC(=O)C2CCC(NS(=O)(=O)C(C)(C)C)CC2)cc1` (centres unmarked) [Ia-187], the values for the IC50 on human NPY Y5 receptor [1] and against human NPY Y5 receptor [2] were 1.9 nM and 60 nM, respectively.
In the case of `CCC(C)NC(=O)c1ccc(NC(=O)C2CCC(NS(=O)(=O)C(C)(C)C)CC2)cc1` (centres unmarked) [Ia-188], the IC50 at human NPY Y5 receptor [1] is 0.75 nM; on human NPY Y5 receptor [2], 28 nM.
The like results for `CC(C)(C)S(=O)(=O)NC1CCC(C(=O)Nc2cccc(NC(=O)C3CCCCC3)c2)CC1` (centres unmarked) [Ia-189] were, in that order, 3.5 nM and 95 nM.
The matching figures for `CC(C)(C)S(=O)(=O)NC1CCC(C(=O)Nc2ccc(NC(=O)C3CCCCC3)cc2)CC1` (centres unmarked) [Ia-190]: 0.34 nM and 1000 nM.
The matching figures for `CC(C)NC(=O)c1ccc(NC(=O)c2ccc(NS(=O)(=O)C(C)(C)C)cc2)cc1` [Ia-191]: 0.49 nM and 220 nM.
For the compound `CC(C)NC(=O)c1cccc(NC(=O)C2CCC(NS(=O)(=O)C(C)C)CC2)c1` (centres unmarked) [Ia-192], the IC50 on human NPY Y5 receptor [1] is 5.9 nM; on human NPY Y5 receptor [2] it was 200 nM.
The like results for `CC(C)NC(=O)c1ccc(NC(=O)C2CCC(NS(=O)(=O)C(C)C)CC2)cc1` (centres unmarked) [Ia-193] were, in that order, 1.4 nM and 43 nM.
The matching figures for `CC(C)S(=O)(=O)NC1CCC(C(=O)Nc2ccc(-c3ccco3)cc2)CC1` (centres unmarked) [Ia-194]: 0.22 nM and 8.1 nM.
The matching figures for `CC(C)(C)S(=O)(=O)NC1CCC(C(=O)Nc2ccc(-c3cnco3)cc2)CC1` (centres unmarked) [Ia-195]: 1.4 nM and 31 nM.
As for `CC(C)S(=O)(=O)NC1CCC(C(=O)Nc2ccc(OCC3CC3)cc2)CC1` (centres unmarked) [Ia-196], the IC50 on human NPY Y5 receptor [1] came to 0.39 nM; against human NPY Y5 receptor [2] it was 1.3 nM.
The like results for `CC(C)S(=O)(=O)NC1CCC(C(=O)Nc2cccc(OCC3CC3)c2)CC1` (centres unmarked) [Ia-197] were, in that order, 0.44 nM and 2.5 nM.
The like results for `CC(C)S(=O)(=O)NC1CCC(C(=O)Nc2ccc(OC3CCCC3)cc2)CC1` (centres unmarked) [Ia-198] were, in that order, 0.23 nM and 2.6 nM.
The like results for `Cc1cc(C(=O)NC(C)C)ccc1NC(=O)C1CCC(NS(=O)(=O)C(C)(C)C)CC1` (centres unmarked) [Ia-201] were, in that order, 3.1 nM and 74 nM.
For `CC(C)(C)S(=O)(=O)NC1CCC(C(=O)Nc2ccc(-c3cccs3)cc2)CC1` (centres unmarked) [Ia-202], the IC50 at human NPY Y5 receptor [1] is 0.37 nM; against human NPY Y5 receptor [2], 3.4 nM.
The matching figures for `CC(C)(C)S(=O)(=O)NC1CCC(C(=O)Nc2ccc(C3CCCCC3)cc2)CC1` (centres unmarked) [Ia-203]: 0.2 nM and 2.6 nM.
The matching figures for `CC(C)S(=O)(=O)NC1CCC(C(=O)Nc2ccc(-c3ncco3)cc2)CC1` (centres unmarked) [Ia-204]: 1 nM and 6.3 nM.
The matching figures for `CC(C)(C)S(=O)(=O)NC1CCC(C(=O)Nc2ccc(OC3CCOC3)cc2)CC1` (centres unmarked) [Ia-205]: 2.4 nM and 99 nM.
Take `CC(C)(C)S(=O)(=O)NC1CCC(C(=O)Nc2ccc(OCC3CCCCO3)cc2)CC1` (centres unmarked) [Ia-206]: the values for the IC50 at human NPY Y5 receptor [1] and against human NPY Y5 receptor [2] were 1.9 nM and 460 nM, respectively.
On to `CC(C)(C)S(=O)(=O)NC1CCC(C(=O)Nc2cccc(N3CCCS3(=O)=O)c2)CC1` (centres unmarked) [Ia-207], for which the values for the IC50 at human NPY Y5 receptor [1] and against human NPY Y5 receptor [2] were 0.55 nM and 5.9 nM, respectively.
Regarding `CC(C)(C)S(=O)(=O)NC1CCC(C(=O)Nc2ccc(N3CCCS3(=O)=O)cc2)CC1` (centres unmarked) [Ia-208], the IC50 at human NPY Y5 receptor [1] was 1.2 nM; on human NPY Y5 receptor [2] it was 9.7 nM.
The like results for `CC(C)(C)S(=O)(=O)Nc1ccc(C(=O)Nc2ccc(-c3ccco3)cc2)cc1` [Ia-210] were, in that order, 2.8 nM and 99 nM.
The like results for `CC(C)(C)S(=O)(=O)Nc1ccc(C(=O)Nc2ccc(-c3ncco3)cc2)cc1` [Ia-211] were, in that order, 4.8 nM and 240 nM.
The like results for `CC(C)(C)S(=O)(=O)Nc1ccc(C(=O)Nc2ccc(OC3CCCC3)cc2)cc1` [Ia-212] were, in that order, 0.52 nM and 2.6 nM.
Turning to `CC(C)(C)S(=O)(=O)Nc1ccc(C(=O)Nc2ccc(-c3cccs3)cc2)cc1` [Ia-213], the IC50 on human NPY Y5 receptor [1] was found to be 0.91 nM; against human NPY Y5 receptor [2] it was 28 nM.
The like results for `CC(C)(C)S(=O)(=O)NC1CCN(C(=O)Nc2ccc(C(F)(F)F)cc2)CC1` [Ia-219] were, in that order, 2.5 nM and 28 nM.
The matching figures for `CC(C)(C)S(=O)(=O)NC1CCN(C(=O)Nc2ccc(C3CCCCC3)cc2)CC1` [Ia-221]: 0.47 nM and 1.5 nM.
The matching figures for `CC(C)S(=O)(=O)NC1CCN(C(=O)Nc2ccc(C(F)(F)F)cc2)CC1` [Ia-222]: 3.7 nM and 18 nM.
Regarding `CC(C)S(=O)(=O)NC1CCN(C(=O)Nc2ccc(C3CCCCC3)cc2)CC1` [Ia-224], the IC50 at human NPY Y5 receptor [1] is 0.1 nM; on human NPY Y5 receptor [2], 1.2 nM.
For the compound `CC(C)(C)S(=O)(=O)NC1CCN(C(=O)Nc2ccc(OC3CCOCC3)cc2)CC1` [Ia-225], the IC50 on human NPY Y5 receptor [1] was 3.4 nM; on human NPY Y5 receptor [2], 20 nM.
The like results for `CC(C)S(=O)(=O)NCCCCC(=O)Nc1ccc2c(c1)C(=O)N(c1ccccc1)C2=O` [Ia-226] were, in that order, 0.37 nM and 21 nM.
The like results for `CC(C)S(=O)(=O)NC1CCN(C(=O)Nc2ccc(OC3CCOCC3)cc2)CC1` [Ia-237] were, in that order, 1.1 nM and 15 nM.
As for `CC(C)(C)S(=O)(=O)NC1CCC(C(=O)Nc2cccc(C3CCOCC3)c2)CC1` (centres unmarked) [Ia-246], the IC50 on human NPY Y5 receptor [1] amounted to 0.26 nM; against human NPY Y5 receptor [2], 20 nM.
As for `CC(C)(C)S(=O)(=O)NC1CCC(C(=O)Nc2ccc(C3(O)CCOCC3)cc2)CC1` (centres unmarked) [Ia-247], the IC50 is 0.79 nM on human NPY Y5 receptor [1] and 31 nM at human NPY Y5 receptor [2].
The like results for `CC(C)(C)S(=O)(=O)NC1CCC(C(=O)Nc2ccc(C3CCOCC3)cc2)CC1` (centres unmarked) [Ia-248] were, in that order, 0.27 nM and 17 nM.

By IC50 is commonly meant the concentration needed to halve the response being measured. Lower therefore signals higher potency.
